Results reported in patent US4977267A, “Intermediates for pyridyloxy compounds having utility as anti-peptic ulcer agents” (Fujirebio Kabushiki Kaisha, priority 1987, dated 1990).

system: gastric mucosa (lesion by necrotizing agent 0.4N HCl+50% ethanol); experiment: Test on the Action of Gastric Mucosal Protection; format: in vivo, Male Donryu rats; settings: 10 mg/kg, p.o., 30 minutes before necrotizing agent (0.4N HCl+50% ethanol, 5 ml/kg); stomach isolated after one hour; rats fasted 24 hours
Experimental: Test on the Action of Gastric Mucosal Protection
Male Donryu rats (150 to 250 g) which had been caused to fast for 24 hours were used. In the test, a necrotizing agent (0.4N HCl+50% ethanol) was orally administered in a dose of 5 ml/kg 30 minutes after administering each of the test compounds (10 mg/kg, p.o.). One hour after administration of the necrotizing agent, the stomach was isolated and fixed by formalin. The area of a lesion was measured, and by comparison with a control group, the percent inhibition was determined.

In order of falling “Inhibition (%) of lesion area” value:
1. O=C(CSCc1ccco1)NC/C=C\COc1cc(CN2CCCCC2)ccn1 [Example 1, N-{4-[4-(piperidinomethyl)pyridyl-2oxy]-cis-2-butenyl)-2-(furfurylthio)acetamide]  66%
2. O=C(CS(=O)(=O)Cc1ccoc1)NC/C=C\COc1cc(CN2CCCCC2)ccn1 [Example 3, N-{4-[4-(piperidinomethyl)pyridyl-2-oxy]-cis-2-butenyl}-2-(3-furylmethylsulfonyl)acetamide]  62%
3. O=C(C[S+]([O-])Cc1ccco1)NC/C=C\COc1cc(CN2CCOCC2)ccn1 (stereo not drawn) [Example 12, N-{4-[4-(morpholinomethyl)pyridyl-2-oxy]-cis-2-butenyl}-2-(furfurylsulfinyl)acetamide]  38%
4. O=C(C[S+]([O-])Cc1ccco1)NC/C=C\COc1cc(CN2CCCCC2)ccn1 (stereo not drawn) [Example 2, N-{4-[4-(piperidinomethyl)pyridyl-2-oxy]-cis-2-butenyl}-2-(furfurylsulfinyl)acetamide]  32%
5. O=C(C[S+]([O-])Cc1ccco1)NCCCCOc1cc(CN2CCCCC2)ccn1 (centres unmarked) [Example 21, N-{4-[4-(piperidinomethyl)-pyridyl-2-oxy]-butyl}-2-(furfurylsulfinyl)acetamide]  32%

molecular target: T1, histamine H2 receptor (Cavia porcellus, UniProt P47747); experiment: Test on histamine H2 receptor antagonizing activity (isolated right atrium); design: species or system Hartley-strain guinea pigs; settings: guinea pig right atrium, heart rate; histamine dose-response; test compound 1×10^-6, 1×10^-7 M, 10 minutes; Van Rossum method; read-out: pA2 (converted)
T1 construct: the right atrium was dissected from the hearts; from tissue; host or cells: isolated right atrium of male Hartley-strain guinea pigs
T1 sequence (P47747 whole entry): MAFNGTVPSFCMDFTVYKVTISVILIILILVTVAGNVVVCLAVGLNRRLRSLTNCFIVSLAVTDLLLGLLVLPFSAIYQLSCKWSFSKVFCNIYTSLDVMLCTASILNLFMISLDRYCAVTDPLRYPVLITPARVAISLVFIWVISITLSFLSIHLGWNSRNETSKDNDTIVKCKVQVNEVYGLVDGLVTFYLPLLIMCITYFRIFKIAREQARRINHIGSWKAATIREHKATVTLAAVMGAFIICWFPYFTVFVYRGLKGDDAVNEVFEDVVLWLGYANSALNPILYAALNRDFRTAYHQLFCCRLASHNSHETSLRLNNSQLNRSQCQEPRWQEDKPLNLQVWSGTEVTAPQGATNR
Experimental: Test on histamine H2 receptor antagonizing activity
Hartley-strain guinea pigs (male 300 to 350 g) were stunned with a blow to the head. The heart was removed, and the right atrium was dissected from the hearts in the Krebs' solution bubbled with a […] was suspended in an Organ bath filled with the Krebs' solution kept at 32° C. The gaseous mixture was passed through the Organ bath, and a diastolic tension was adjusted to 1 g. The contraction of the atrium was recorded by a force displacement transducer, and the heart rate was measured by interlocking a heart rate meter to the transducer.
Histamine (used in the form of dihydrochloride; the same hereinafter) was added to the Organ bath cumulatively in a concentration of 1×10^-8 M to 3×10^-5 M. Thus, the dose-response curve of histamine was obtained. The Organ bath was washed several times, and each of the test compounds (1×10^-6, 1×10^-7 M) was added to the Organ bath, and a dose-response curve of histamine in the presence of the test compound was obtained 10 minutes later.
The pA2 value of each of the test compound was determined from the first histamine dose-response curve and the histamine dose-response curve obtained in the presence of the test compounds by the method of J. M. Van Rossum (Arch. Int. Pharmacodyn. Ther., 143-299, 1963).

In order of rising Kb:
1. O=C(CS(=O)(=O)Cc1ccoc1)NC/C=C\COc1cc(CN2CCCC2)ccn1 [Example 11, N-{4-[4-(pyrrolidinomethyl)pyridyl-2-oxy]-cis-2-butenyl}-2-(3-furylmethylsulfonyl)acetamide]  100 nM
2. O=C(C[S+]([O-])Cc1ccco1)NC/C=C\COc1cc(CN2CCCC2)ccn1 (stereo not drawn) [Example 10, N-{4-[4-(pyrrolidinomethyl)pyridyl-2-oxy]-cis-2-butenyl}-2-(furfurylsulfinyl)acetamide]  126 nM
3. O=C(C[S+]([O-])Cc1ccco1)NC/C=C\COc1cc(CN2CCOCC2)ccn1 (stereo not drawn) [Example 12, N-{4-[4-(morpholinomethyl)pyridyl-2-oxy]-cis-2-butenyl}-2-(furfurylsulfinyl)acetamide]  251 nM
